Data from patent publication US20220162192A1 (ESCAPE Bio, Inc., priority 2019, published 2022).

Assays:
[1] = target: T1, Recombinant wild type LRRK2 protein (Homo sapiens, UniProt Q5S007); assay: LanthaScreen Kinase Activity Assay (TR-FRET), wild type LRRK2; type: biochemical; details: class symbols; 25 μM ATP, 400 nM LRRKtide, 2.9 nM kinase, 60 min at room temperature; read-out: LRRK2 WT IC50
T1 construct: purchased Life Technologies PR8604B
Description: (§1) LRRK2 kinase activity was measured using a LanthaScreen™ Kinase Activity Assay from ThermoFisher Scientific. Recombinant wild type or G2019S-LRRK2 protein (Life Technologies, PR8604B or PV4881, respectively), was incubated with a fluorescein-labeled peptide substrate called LRRKtide that is based upon ezrin/radixin/moesin (ERM) (Life Technologies, PV4901) in the presence of ATP and serially diluted compound. After an incubation period of 1 hr, the phosphotransferase activity was stopped and a terbium-labelled anti-pERM antibody (Life Technologies, PV4899) was added to detect the phosphorylation of LRRKtide by measuring the time resolved-Forster resonant energy transfer (TR-FRET) signal from the terbium label on the antibody to the fluorescein tag on LRRKtide, expressed as the 520 nm/495 nm emission ratio. Compound-dependent inhibition of the TR-FRET signal was used to generate a concentration-response curve for IC50 determination.
(§2) The assay was carried out under the following protocol conditions: 1 mM compound in DMSO was serially diluted 1:3, 11 points in DMSO with a Biomek FX and 0.1 μL of the diluted compound was subsequently stamped into the assay plate (384-well format Lumitrac 200, Greiner, 781075) with an Echo Labcyte such that the final compound concentration in the assay was 10 μM to […]. Subsequently, 5 μL of 2× kinase solution (2.9 nM final concentration) was added to the assay plate in assay buffer composed of 50 mM Tris pH 8.5 (Sigma, T6791), 5 mM MgCl2 (Fluka, 63020), 1 mM EGTA (Sigma, E3889), 0.01% BRIJ-35 (Sigma, P1254) and 2 mM DTT. The reaction was started by addition of 2×ATP/LRRKtide solution in assay buffer such that the final concentration was 400 nM LRRKtide and 25 μM ATP. After 60 min incubation at room temperature, the reaction was stopped by addition of […] containing a final concentration of 2 nM anti-pERM antibody and 10 mM EDTA. After a 30 min incubation at RT, the TR-FRET signal was measured on a Wallac 2104 EnVision® multilabel reader at an excitation wavelength of 340 nm and reading emission at 520 nm and 495 nm. The ratio of the 520 nm and 495 nm emission was used to analyze the data.

[2] = target: T2, Recombinant G2019S-LRRK2 protein (Homo sapiens, UniProt Q5S007, G2019S); assay: LanthaScreen Kinase Activity Assay (TR-FRET), G2019S-LRRK2; type: biochemical; details: class symbols; 25 μM ATP, 400 nM LRRKtide, 2.9 nM kinase, 60 min at room temperature
T2 construct: purchased Life Technologies PV4881
Description: as §1, §2

T2 sequence (Q5S007 whole entry G2019S): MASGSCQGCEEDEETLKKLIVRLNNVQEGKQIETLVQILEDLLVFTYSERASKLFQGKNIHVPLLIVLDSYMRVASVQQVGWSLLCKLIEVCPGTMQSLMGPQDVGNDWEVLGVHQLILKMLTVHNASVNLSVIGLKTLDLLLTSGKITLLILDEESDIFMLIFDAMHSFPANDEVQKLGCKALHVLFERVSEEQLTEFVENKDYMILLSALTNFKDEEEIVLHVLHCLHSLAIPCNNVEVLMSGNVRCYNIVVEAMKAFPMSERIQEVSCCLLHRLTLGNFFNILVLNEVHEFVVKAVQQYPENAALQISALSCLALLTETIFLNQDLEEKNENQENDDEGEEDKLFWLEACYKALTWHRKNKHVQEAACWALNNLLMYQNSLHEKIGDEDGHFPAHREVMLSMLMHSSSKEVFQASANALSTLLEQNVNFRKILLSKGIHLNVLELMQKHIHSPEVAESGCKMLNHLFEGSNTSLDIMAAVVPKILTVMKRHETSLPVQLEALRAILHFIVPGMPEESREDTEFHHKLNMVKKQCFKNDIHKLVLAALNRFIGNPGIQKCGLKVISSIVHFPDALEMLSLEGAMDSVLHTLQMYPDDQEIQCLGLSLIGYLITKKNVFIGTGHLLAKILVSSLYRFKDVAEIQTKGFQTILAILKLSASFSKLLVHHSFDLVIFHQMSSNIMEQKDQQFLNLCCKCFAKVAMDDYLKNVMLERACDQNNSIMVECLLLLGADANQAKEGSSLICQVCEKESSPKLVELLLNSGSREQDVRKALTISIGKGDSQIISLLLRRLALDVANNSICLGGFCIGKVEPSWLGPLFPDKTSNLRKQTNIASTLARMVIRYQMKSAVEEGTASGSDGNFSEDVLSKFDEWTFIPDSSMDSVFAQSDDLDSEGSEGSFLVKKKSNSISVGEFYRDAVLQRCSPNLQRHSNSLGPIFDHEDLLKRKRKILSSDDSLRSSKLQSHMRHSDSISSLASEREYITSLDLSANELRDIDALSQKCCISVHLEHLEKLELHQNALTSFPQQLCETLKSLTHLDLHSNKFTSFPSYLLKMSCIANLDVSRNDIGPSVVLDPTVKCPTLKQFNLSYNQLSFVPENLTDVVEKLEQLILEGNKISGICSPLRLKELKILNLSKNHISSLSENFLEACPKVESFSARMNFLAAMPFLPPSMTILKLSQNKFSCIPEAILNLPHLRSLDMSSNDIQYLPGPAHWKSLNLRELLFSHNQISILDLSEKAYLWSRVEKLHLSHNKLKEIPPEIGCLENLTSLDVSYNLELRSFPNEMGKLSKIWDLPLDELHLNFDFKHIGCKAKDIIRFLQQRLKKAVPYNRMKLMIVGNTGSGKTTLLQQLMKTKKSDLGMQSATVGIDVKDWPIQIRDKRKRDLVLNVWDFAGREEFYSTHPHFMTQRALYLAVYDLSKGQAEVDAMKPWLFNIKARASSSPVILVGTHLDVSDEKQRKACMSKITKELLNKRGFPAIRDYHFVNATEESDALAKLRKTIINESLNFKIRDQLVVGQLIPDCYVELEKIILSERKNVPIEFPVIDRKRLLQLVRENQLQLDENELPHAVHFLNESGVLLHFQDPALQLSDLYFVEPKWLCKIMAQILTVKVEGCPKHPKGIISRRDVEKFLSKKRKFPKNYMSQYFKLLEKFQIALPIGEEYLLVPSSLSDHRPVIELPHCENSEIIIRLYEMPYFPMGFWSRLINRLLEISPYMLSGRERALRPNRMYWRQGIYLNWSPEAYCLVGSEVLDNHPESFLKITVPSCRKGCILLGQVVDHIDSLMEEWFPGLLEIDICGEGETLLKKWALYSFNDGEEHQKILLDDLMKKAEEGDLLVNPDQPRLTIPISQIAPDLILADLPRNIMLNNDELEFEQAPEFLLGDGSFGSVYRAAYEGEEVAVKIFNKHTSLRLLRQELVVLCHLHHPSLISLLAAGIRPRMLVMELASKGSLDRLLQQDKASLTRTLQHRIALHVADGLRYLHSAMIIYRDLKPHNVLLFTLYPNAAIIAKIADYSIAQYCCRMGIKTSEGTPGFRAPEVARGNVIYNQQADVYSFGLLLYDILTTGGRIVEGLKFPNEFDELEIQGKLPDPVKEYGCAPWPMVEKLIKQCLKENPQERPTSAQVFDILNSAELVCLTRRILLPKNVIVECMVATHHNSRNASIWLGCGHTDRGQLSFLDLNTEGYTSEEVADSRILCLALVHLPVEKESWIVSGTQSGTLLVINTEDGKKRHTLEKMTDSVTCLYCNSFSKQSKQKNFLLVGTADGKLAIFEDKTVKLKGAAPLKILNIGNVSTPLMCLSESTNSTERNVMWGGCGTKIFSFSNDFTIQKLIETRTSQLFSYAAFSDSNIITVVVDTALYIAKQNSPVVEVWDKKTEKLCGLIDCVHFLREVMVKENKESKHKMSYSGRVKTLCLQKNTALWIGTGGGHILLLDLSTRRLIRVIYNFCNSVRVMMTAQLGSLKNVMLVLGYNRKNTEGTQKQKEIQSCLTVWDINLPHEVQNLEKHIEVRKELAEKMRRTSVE
T1 sequence (Q5S007 whole entry): as the sequence (Q5S007 whole entry G2019S) above, with S2019G counted along it

Row | IC50 [1] | IC50 [2] | SMILES
1 | 100 to 1000 nM | 100 to 1000 nM | Cc1cc(C(=O)Nc2ccc3[nH]nc(-c4ccncc4)c3c2)cc2nn[nH]c12 [Example 13, 7-Methyl-N-(3-(pyridin-4-yl)-1H-indazol-5-yl)-1H-benzo[d][1,2,3]triazole-5-carboxamide]
2 | 100 to 1000 nM | ≤ 100 nM | O=C(Nc1ccc2[nH]nc(-c3ccoc3)c2c1)c1ccc2nccn2c1 [Example 119, N-(3-(Furan-3-yl)-1H-indazol-5-yl)imidazo[1,2-a]pyridine-6-carboxamide]
3 | ≤ 100 nM | ≤ 100 nM | O=C(Nc1ccc2[nH]nc(-c3ccoc3)c2c1)c1ccc2snnc2c1 [Example 121, N-(3-(Furan-3-yl)-1H-indazol-5-yl)benzo[d][1,2,3]thiadiazole-5-carboxamide]
4 | 100 to 1000 nM | ≤ 100 nM | Cc1cc2[nH]ccc2cc1C(=O)Nc1ccc2[nH]nc(-c3ccccc3)c2c1 [Example 20, 6-Methyl-N-(3-phenyl-1H-indazol-5-yl)-1H-indole-5-carboxamide]
5 | 1000 to 10000 nM | 100 to 1000 nM | Cn1ncc2c(F)c(C(=O)Nc3ccc4[nH]nc(-c5ccccc5O)c4c3)c(F)cc21 [Example 75, 4,6-Difluoro-N-(3-(2-hydroxyphenyl)-1H-indazol-5-yl)-1-methyl-1H-indazole-5-carboxamide]
6 | ≤ 100 nM | ≤ 100 nM | Cn1ncc2c(F)c(C(=O)Nc3ccc4[nH]nc(-c5cncc(N6CCOCC6)c5)c4c3)c(F)cc21 [Example 98, 4,6-Difluoro-1-methyl-N-(3-(5-morpholinopyridin-3-yl)-1H-indazol-5-yl)-1H-indazole-5-carboxamide]
7 | 100 to 1000 nM | ≤ 100 nM | COc1cnccc1-c1n[nH]c2ccc(NC(=O)c3c(F)cc4c(cnn4C)c3F)cc12 [Example 103, 4,6-Difluoro-N-(3-(3-methoxypyridin-4-yl)-1H-indazol-5-yl)-1-methyl-1H-indazole-5-carboxamide]
8 | 100 to 1000 nM | ≤ 100 nM | Cn1cc2nc(C(=O)Nc3ccc4[nH]nc(-c5cnco5)c4c3)ccc2n1 [Example 166, 2-Methyl-N-(3-(oxazol-5-yl)-1H-indazol-5-yl)-2H-pyrazolo[4,3-b]pyridine-5-carboxamide]
9 | 100 to 1000 nM | ≤ 100 nM | Cc1cc2[nH]cnc2cc1C(=O)Nc1ccc2[nH]nc(-c3ccccc3)c2c1 [Example 19, 6-Methyl-N-(3-phenyl-1H-indazol-5-yl)-1H-benzo[d]imidazole-5-carboxamide]
10 | 1000 to 10000 nM | 1000 to 10000 nM | Cc1ccncc1-c1n[nH]c2ccc(NC(=O)c3c(F)cc4c(cnn4C)c3F)cc12 [Example 38, 4,6-Difluoro-1-methyl-N-(3-(4-methylpyridin-3-yl)-1H-indazol-5-yl)-1H-indazole-5-carboxamide]
11 | ≤ 100 nM | ≤ 100 nM | Cc1cc2c(cnn2C)cc1C(=O)Nc1ccc2[nH]nc(-c3ccoc3)c2c1 [Example 158, N-(3-(Furan-3-yl)-1H-indazol-5-yl)-1,6-dimethyl-1H-indazole-5-carboxamide]
12 | 100 to 1000 nM | ≤ 100 nM | O=C(Nc1ccc2[nH]nc(-c3ccoc3)c2c1)c1ccc2ncsc2c1 [Example 123, N-(3-(Furan-3-yl)-1H-indazol-5-yl)benzo[d]thiazole-6-carboxamide]
13 | 100 to 1000 nM | ≤ 100 nM | Cc1cccc(-c2n[nH]c3ccc(NC(=O)c4c(F)cc5c(cnn5C)c4F)cc23)n1 [Example 71, 4,6-Difluoro-1-methyl-N-(3-(6-methylpyridin-2-yl)-1H-indazol-5-yl)-1H-indazole-5-carboxamide]
14 | 1000 to 10000 nM | 100 to 1000 nM | COc1ccc(C)c(-c2n[nH]c3ccc(NC(=O)c4c(F)cc5c(cnn5C)c4F)cc23)c1 [Example 90, 4,6-Difluoro-N-(3-(5-methoxy-2-methylphenyl)-1H-indazol-5-yl)-1-methyl-1H-indazole-5-carboxamide]
15 | 100 to 1000 nM | ≤ 100 nM | Cc1cc2cnnn2c(C)c1C(=O)Nc1ccc2[nH]nc(Br)c2c1 [Example 45, N-(3-Bromo-1H-indazol-5-yl)-5,7-dimethyl-[1,2,3]triazolo[1,5-a]pyridine-6-carboxamide]
16 | ≤ 100 nM | ≤ 100 nM | Cn1ncc2c(F)c(C(=O)Nc3ccc4[nH]nc(-c5ccoc5)c4c3)c(F)cc21 [Example 28, 4,6-Difluoro-N-(3-(furan-3-yl)-1H-indazol-5-yl)-1-methyl-1H-indazole-5-carboxamide]
17 | 100 to 1000 nM | ≤ 100 nM | Cn1ncc2c(F)c(C(=O)Nc3ccc4[nH]nc(-c5ccccc5)c4c3)c(F)cc21 [Example 50, 4,6-Difluoro-1-methyl-N-(3-phenyl-1H-indazol-5-yl)-1H-indazole-5-carboxamide]
18 | 1000 to 10000 nM | 100 to 1000 nM | Cc1cn2cnnc2c(C)c1C(=O)Nc1ccc2[nH]nc(C)c2c1 [Example 58, 6,8-Dimethyl-N-(3-methyl-1H-indazol-5-yl)-[1,2,4]triazolo[4,3-a]pyridine-7-carboxamide]
19 | 100 to 1000 nM | ≤ 100 nM | O=C(Nc1ccc2[nH]nc(-c3ccoc3)c2c1)c1ccc2nsnc2c1 [Example 120, N-(3-(Furan-3-yl)-1H-indazol-5-yl)benzo[c][1,2,5]thiadiazole-5-carboxamide]
20 | 1000 to 10000 nM | 100 to 1000 nM | Cn1ncc2cc(C(=O)Nc3ccc4[nH]nc(-c5ccccc5)c4c3)ccc21 [Example 107, 1-Methyl-N-(3-phenyl-1H-indazol-5-yl)-1H-indazole-5-carboxamide]
21 | 1000 to 10000 nM | 100 to 1000 nM | Cn1ncc2c(F)c(C(=O)Nc3ccc4[nH]nc(Cc5ccccc5)c4c3)c(F)cc21 [Example 140, N-(3-Benzyl-1H-indazol-5-yl)-4,6-difluoro-1-methyl-1H-indazole-5-carboxamide]
22 | 100 to 1000 nM | ≤ 100 nM | O=C(Nc1ccc2[nH]nc(-c3ccoc3)c2c1)C1CCc2cncn2C1 (single isomer, unassigned) [Example 173a]
23 | ≤ 100 nM | ≤ 100 nM | Cc1nn(C)cc1-c1n[nH]c2ccc(NC(=O)c3c(F)cc4c(cnn4C)c3F)cc12 [Example 80, N-(3-(1,3-Dimethyl-1H-pyrazol-4-yl)-1H-indazol-5-yl)-4,6-difluoro-1-methyl-1H-indazole-5-carboxamide]
24 | ≤ 100 nM | ≤ 100 nM | O=C(Nc1ccc2[nH]nc(-c3ccoc3)c2c1)C1CCc2nncn2C1 (single isomer, unassigned) [Example 162a]
25 | 100 to 1000 nM | ≤ 100 nM | Cn1ncc2c(F)c(C(=O)Nc3ccc4[nH]nc(-c5ncco5)c4c3)c(F)cc21 [Example 138, 4,6-Difluoro-1-methyl-N-(3-(oxazol-2-yl)-1H-indazol-5-yl)-1H-indazole-5-carboxamide]
26 | 100 to 1000 nM | ≤ 100 nM | Cc1c(C(=O)Nc2ccc3[nH]nc(-c4ccccc4)c3c2)ccc2cncn12 [Example 62, 5-Methyl-N-(3-phenyl-1H-indazol-5-yl)imidazo[1,5-a]pyridine-6-carboxamide]
27 | 1000 to 10000 nM | 100 to 1000 nM | Cn1ncc2c(F)c(C(=O)Nc3ccc4[nH]nc(N5CCC5)c4c3)c(F)cc21 [Example 139, N-(3-(Azetidin-1-yl)-1H-indazol-5-yl)-4,6-difluoro-1-methyl-1H-indazole-5-carboxamide]
